According to ChEMBL document CHEMBL2073802, “Increase in doxorubicin cytotoxicity by inhibition of P-glycoprotein activity with lomerizine” (Biol Pharm Bull, 2001):

Biological target: ATP-dependent translocase ABCB1 (Homo sapiens, UniProt P08183)
Test: TP_TRANSPORTER: increase in Calcein intracellular accumulation (Calcein: 1 uM, Lomerizine: 10 uM) in K562/DOX cells
Format: functional, cell-based
Conditions: k562/adr

Sequence of ATP-dependent translocase ABCB1 (P08183 whole entry): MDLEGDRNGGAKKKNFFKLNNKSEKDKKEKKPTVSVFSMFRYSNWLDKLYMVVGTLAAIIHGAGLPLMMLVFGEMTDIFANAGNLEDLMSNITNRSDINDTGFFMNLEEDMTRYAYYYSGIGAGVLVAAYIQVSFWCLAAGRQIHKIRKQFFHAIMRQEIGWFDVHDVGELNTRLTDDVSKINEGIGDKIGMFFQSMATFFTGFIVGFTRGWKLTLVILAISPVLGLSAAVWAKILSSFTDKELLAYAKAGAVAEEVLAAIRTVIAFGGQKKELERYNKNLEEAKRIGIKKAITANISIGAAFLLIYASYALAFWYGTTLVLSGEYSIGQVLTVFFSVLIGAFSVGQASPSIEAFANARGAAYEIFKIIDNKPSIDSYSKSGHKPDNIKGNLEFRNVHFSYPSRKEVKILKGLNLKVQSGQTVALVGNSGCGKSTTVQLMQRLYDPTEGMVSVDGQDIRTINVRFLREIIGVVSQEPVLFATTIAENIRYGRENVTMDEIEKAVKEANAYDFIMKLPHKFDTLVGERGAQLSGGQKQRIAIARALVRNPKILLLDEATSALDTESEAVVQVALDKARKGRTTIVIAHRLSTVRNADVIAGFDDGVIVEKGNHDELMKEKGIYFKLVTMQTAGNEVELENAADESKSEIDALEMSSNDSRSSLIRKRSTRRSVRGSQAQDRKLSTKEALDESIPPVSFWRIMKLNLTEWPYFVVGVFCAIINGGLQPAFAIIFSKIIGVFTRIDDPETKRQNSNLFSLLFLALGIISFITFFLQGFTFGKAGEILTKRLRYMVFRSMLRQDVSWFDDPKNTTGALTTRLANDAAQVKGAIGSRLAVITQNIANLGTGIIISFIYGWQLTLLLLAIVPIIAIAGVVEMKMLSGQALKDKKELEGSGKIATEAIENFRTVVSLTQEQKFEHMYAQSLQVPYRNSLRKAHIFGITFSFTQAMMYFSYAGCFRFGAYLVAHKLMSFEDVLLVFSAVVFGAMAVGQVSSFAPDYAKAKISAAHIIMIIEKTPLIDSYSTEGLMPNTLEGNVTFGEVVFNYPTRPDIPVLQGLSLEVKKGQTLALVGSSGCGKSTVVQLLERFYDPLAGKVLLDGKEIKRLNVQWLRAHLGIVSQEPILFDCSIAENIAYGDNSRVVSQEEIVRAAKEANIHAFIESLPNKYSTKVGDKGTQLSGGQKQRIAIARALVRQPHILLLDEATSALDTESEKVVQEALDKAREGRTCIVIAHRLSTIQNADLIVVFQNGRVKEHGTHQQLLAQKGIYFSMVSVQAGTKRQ

COc1ccc(CN2CCN(C(c3ccc(F)cc3)c3ccc(F)cc3)CC2)c(OC)c1OC [LOMERIZINE]
Activity: inhibitor [+]
